Patent US11865098B1, “Methods and compositions for treating excessive sleepiness” (Axsome Malta Ltd., priority 2017, dated 2024)

Test system: adult patients with OSA and ES
Assay: Safety and tolerability (TEAEs, vital signs), 12-week parallel study in OSA
Format: in vivo, human
Details: for Anxiety, incidence / Any TEAE, incidence / Decreased appetite, incidence / Diarrhea, incidence / Discontinuations due to TEAEs, incidence / Dry mouth, incidence / Feeling jittery, incidence / Headache, incidence / Insomnia, incidence / Irritability, incidence / Nasopharyngitis, incidence / Nausea, incidence / Pruritus, incidence / Serious TEAEs, incidence / Sinusitis, incidence: safety population
Description: The study was a 12-week, double-blind, placebo-controlled, parallel design study as described in greater detail in Example 1 (Schweitzer et al., Sleep 40(Abstract Supplement):A237. Abstract 0641 (2017)). Patients were randomized (1:1:2:2:2) to APC 37.5, 75, 150, 300 mg, or placebo for 12 weeks, and were stratified by adherence or non-adherence with primary OSA therapy (adherent definition was use for ≥4 hours per night on >70% of nights). Two patient-reported measures were included as secondary efficacy outcomes to evaluate the effects of APC on functional status and work productivity and activity impairment at baseline and weeks 1, 4, 8, and 12. The Functional Outcomes of Sleep questionnaire short version (FOSQ-10) (Chasens et al., Sleep 32(7):915 (2009)) evaluated the effects of ES on functioning. The Work Productivity and Activity Impairment questionnaire for Specific Health Problems (WPAI:SHP) (Reilly et al., Pharmacoeconomics 4(5):353 (1993); Reilly, Work Productivity and Activity Impairment Questionnaire: Specific Health Problem V2.0 (WPAI: SHP). www.reillyassociates.net/WPAI_SHP) evaluated work productivity impairment among employed patients and overall activity impairment outside of work among all patients for the past 7 days. Four outcomes are available from the WPAI:SHP: Absenteeism (percent work time missed due to health); Presenteeism (percent impairment while working due to health); Percent overall work impairment (calculated from absenteeism and presenteeism); and Percent activity impairment due to health. The FOSQ-10 was evaluated as change over time compared with placebo (least squares (LS) mean); the 4 WPAI outcomes were evaluated at week 12 compared to placebo. Efficacy analyses were based on the modified intent-to-treat population (mITT) and there was no multiplicity adjustment for the FOSQ-10 or WPAI:SHP. Safety and tolerability were assessed based on treatment-emergent adverse events (TEAEs), vital signs, electrocardiogram test, physical exams, Columbia-Suicide Severity Rating Scale, and laboratory tests in the safety population.
Efficacy analyses were based on the modified intent-to-treat (mITT) population; there was no multiplicity adjustment for the SF-36 v2 or EQ-5D-5L. SF-36 v2 scores were scaled from 0 to 100 (higher scores on all scales represent better health), transformed to norm-based scores using US general-population data from SF-36 Manuals (Ware Jr et al., User's Manual for the SF-36v2™ Health Survey (2nd ed.). QualityMetric Incorporated (Lincoln, RI); 2007), and were analyzed using a mixed-effect model with repeated measures (MMRM); and baseline value of the efficacy endpoint was used to determine differences in changes from baseline. EQ-5D-5L VAS and index-score data were analyzed using an MMRM model. Safety and tolerability were assessed based on treatment-emergent adverse events (TEAEs), vital signs, electrocardiogram test, physical exams, and laboratory tests.

## NC(=O)OC[C@H](N)Cc1ccccc1 [JZP-110, (R)-2-amino-3-phenylpropyl carbamate]
37.5 mg
  Serious TEAEs reported (events): bile duct obstruction (n=1) and streptococcal endocarditis (n=1)
37.5 mg (n = 58)
  Anxiety, incidence: 1 (1.7) n (%)
  Any TEAE, incidence: 37 (63.8) n (%)
  Decreased appetite, incidence: 1 (1.7) n (%)
  Diarrhea, incidence: 1 (1.7) n (%)
  Discontinuations due to TEAEs, incidence: 3 (5.2) n (%)
  Dry mouth, incidence: 1 (1.7) n (%)
  Feeling jittery, incidence: 3 (5.2) n (%)
  Headache, incidence: 4 (6.9) n (%)
  Insomnia, incidence: 1 (1.7) n (%)
  Irritability, incidence: 3 (5.2) n (%)
  Nasopharyngitis, incidence: 2 (3.4) n (%)
  Nausea, incidence: 3 (5.2) n (%)
  Pruritus, incidence: 3 (5.2) n (%)
  Serious TEAEs, incidence: 2 (3.4) n (%)
  Sinusitis, incidence: 1 (1.7) n (%)
37.5 mg, listed as APC
  Serious TEAEs reported (events): bile duct obstruction (n=1), and streptococcal endocarditis (n=1)
75 mg (n = 62)
  Anxiety, incidence: 2 (3.2) n (%)
  Any TEAE, incidence: 30 (48.4) n (%)
  Decreased appetite, incidence: 3 (4.8) n (%)
  Diarrhea, incidence: 3 (4.8) n (%)
  Discontinuations due to TEAEs, incidence: 2 (3.2) n (%)
  Dry mouth, incidence: 1 (1.6) n (%)
  Feeling jittery, incidence: 3 (4.8) n (%)
  Headache, incidence: 5 (8.1) n (%)
  Insomnia, incidence: 0 n (%)
  Irritability, incidence: 0 n (%)
  Nasopharyngitis, incidence: 1 (1.6) n (%)
  Nausea, incidence: 3 (4.8) n (%)
  Pruritus, incidence: 0 n (%)
  Serious TEAEs, incidence: 0 n (%)
  Sinusitis, incidence: 4 (6.5) n (%)
150 mg
  Serious TEAEs reported (events): hyperglycemia (n=1)
150 mg (n = 117)
  Anxiety, incidence: 6 (5.1) n (%)
  Any TEAE, incidence: 83 (70.9) n (%)
  Decreased appetite, incidence: 9 (7.7) n (%)
  Diarrhea, incidence: 5 (4.3) n (%)
  Discontinuations due to TEAEs, incidence: 5 (4.3) n (%)
  Dry mouth, incidence: 5 (4.3) n (%)
  Feeling jittery, incidence: 1 (0.9) n (%)
  Headache, incidence: 10 (8.5) n (%)
  Insomnia, incidence: 3 (2.6) n (%)
  Irritability, incidence: 4 (3.4) n (%)
  Nasopharyngitis, incidence: 7 (6.0) n (%)
  Nausea, incidence: 10 (8.5) n (%)
  Pruritus, incidence: 1 (0.9) n (%)
  Serious TEAEs, incidence: 1 (0.9) n (%)
  Sinusitis, incidence: 0 n (%)
300 mg (n = 118)
  Anxiety, incidence: 16 (13.6) n (%)
  Any TEAE, incidence: 91 (77.1) n (%)
  Decreased appetite, incidence: 14 (11.9) n (%)
  Diarrhea, incidence: 8 (6.8) n (%)
  Discontinuations due to TEAEs, incidence: 15 (12.7) n (%)
  Dry mouth, incidence: 9 (7.6) n (%)
  Feeling jittery, incidence: 7 (5.9) n (%)
  Headache, incidence: 17 (14.4) n (%)
  Insomnia, incidence: 11 (9.3) n (%)
  Irritability, incidence: 1 (0.8) n (%)
  Nasopharyngitis, incidence: 8 (6.8) n (%)
  Nausea, incidence: 12 (10.2) n (%)
  Pruritus, incidence: 0 n (%)
  Serious TEAEs, incidence: 0 n (%)
  Sinusitis, incidence: 3 (2.5) n (%)
12-week OSA study
  Mean increase from baseline in diastolic blood pressure: 1-3 mmHg
  Mean increase from baseline in pulse rate: 2-5 beats/minute
  Mean increase from baseline in systolic blood pressure: 1-4 mmHg
All doses (n = 355)
  Anxiety, incidence: 25 (7.0) n (%)
  Any TEAE, incidence: 241 (67.9) n (%)
  Decreased appetite, incidence: 27 (7.6) n (%)
  Diarrhea, incidence: 17 (4.8) n (%)
  Discontinuations due to TEAEs, incidence: 25 (7.0) n (%)
  Dry mouth, incidence: 16 (4.5) n (%)
  Feeling jittery, incidence: 14 (3.9) n (%)
  Headache, incidence: 36 (10.1) n (%)
  Insomnia, incidence: 15 (4.2) n (%)
  Irritability, incidence: 8 (2.3) n (%)
  Nasopharyngitis, incidence: 18 (5.1) n (%)
  Nausea, incidence: 28 (7.9) n (%)
  Pruritus, incidence: 4 (1.1) n (%)
  Serious TEAEs, incidence: 3 (0.8) n (%)
  Sinusitis, incidence: 8 (2.3) n (%)
